One data set concerns CCRF-CEM/VM-1 cells. Briefly: Cytotoxicity, CCRF-CEM/VM-1. The note with it: for IC50 / IC90: Homo sapiens, CCRF-CEM; for IC90: read-out: Cytotoxic Concentration IC90. The data set is classed as cell-based, human. An excerpt: (§1) | cell growth by 50% (IC50) in μM.
The subject of data set [1] is Human promyelocytic leukemic cell (HL-60). In words: Cytotoxicity, HL-60. The data set is classed as cell-based.
Source text: as §1

In data set [2] the test system is Human acute lymphoblastic T cells (CCRF-CEM). In words: Cytotoxicity, CCRF-CEM. The following applies: for IC50 / IC90: Homo sapiens, CCRF-CEM; for IC90: read-out: Cytotoxic Concentration IC90. It is filed as cell-based.
Source text: as §1

A further data set relates to CCRF-CEM/VBL cells. Briefly: Cytotoxicity, CCRF-CEM resistant to vinblastine. The data set is classed as cell-based, human. The note with it: for IC50 / IC90: Homo sapiens, CCRF-CEM; for IC90: read-out: Cytotoxic Concentration IC90.
Source text: as §1

The test system of data set [3] is Human breast adenocarcinoma cells (SK-Br-3). In words: Cytotoxicity, SK-Br-3. It is filed as cell-based.
Source text: as §1

Data set [4] has as its system Human testicular teratocarcinoma cells (833K). Briefly: Cytotoxicity, 833K. The data set is classed as cell-based.
Source text: as §1

In data set [5] the test system is Chinese hamster lung cells (DC-3F). In words: Cytotoxicity, DC-3F. The data set is classed as cell-based. The following applies: for IC50 / IC90: Cricetulus griseus, DC3F; for IC90: read-out: Cytotoxic Concentration IC90.
Source text: as §1

In data set [6] the test system is Chinese hamster lung cells resistant to actinomycin D (DC-3F/ADII). In words: Cytotoxicity, DC-3F/ADII. It is filed as cell-based. The note with it: for IC50 / IC90: Cricetulus griseus, DC3F; for IC90: read-out: Cytotoxic Concentration IC90.
Source text: as §1

Another data set concerns MT2 cells. In words: Cytotoxicity, MT2. The data set is classed as cell-based. The following applies: Table 15, MT2.
[7] abbreviates: Table 14, vinblastine-resistant (VLB100).
Setting [8] is: Table 3, CCRF-CEM/VBL, EQI-6 = (1).
The mark [9] stands for this setting: Table 3, CCRF-CEM/VM-1, EQI-6 = (1).
[10] abbreviates: Table 4, DC-3F/ADII, EQI-6 = (1).

Where two headings read alike, the source gives them in different places.

Consider `COc1cc([C@@H]2c3cc4c(cc3[C@@H](O[C@@H]3O[C@@H]5CO[C@@H](c6cccs6)O[C@H]5[C@H](O)[C@H]3O)[C@H]3COC(=O)[C@H]23)OCO4)cc(OC)c1O` [VM26], for which the “resistance of cell line to VM26” value in the data set with CCRF-CEM/VM-1 cells (CCRF/VM1 versus CCRF/CEM) stood at 50 fold.

As to `COc1cc(NS(C)(=O)=O)ccc1Nc1c2ccccc2nc2ccccc12` [m-AMSA, 4'-(9-acridinylamino)methanesulfon-m-anisidide], the IC50 stood at 38.8 nM in data set [1] (Homo sapiens, HL-60, Table 1, HL-60, read-out: IC50); 39 nM in [1] (Homo sapiens, HL-60, Table 2, HL60, read-out: concentration required to inhibit cell growth by 50% (IC50)); 38.8 nM in data set [1] (Homo sapiens, HL-60, Table 3, HL-60, read-out: Cytotoxic Concentration IC50); 199 nM in data set [2] (Table 1, CCRF-CEM, read-out: IC50); 199 nM in [2] (Table 2, CCRF/CEM, read-out: concentration required to inhibit cell growth by 50% (IC50)); 199 nM in [2] (Table 3, CCRF-CEM, read-out: Cytotoxic Concentration IC50). The IC50 came out at 129 nM in [2] (Table 14, CCRF-CEM, read-out: Cytotoxic Concentration IC50); 565 nM in the data set on CCRF-CEM/VBL cells (Table 2, CCRF/VBL (MDR/pg-p), read-out: concentration required to inhibit cell growth by 50% (IC50)); 565 nM in the data set on CCRF-CEM/VBL cells (Table 3, CCRF-CEM/VBL, read-out: Cytotoxic Concentration IC50); 964 nM with CCRF-CEM/VBL cells (Table 14, vinblastine-resistant (VLB100), read-out: Cytotoxic Concentration IC50); 1710 nM in the data set with CCRF-CEM/VM-1 cells (Table 2, CCRF/VM-1 (MDR/TopoII), read-out: concentration required to inhibit cell growth by 50% (IC50)); 1710 nM with CCRF-CEM/VM-1 cells (Table 3, CCRF-CEM/VM-1, read-out: Cytotoxic Concentration IC50). Also, the IC50 with CCRF-CEM/VM-1 cells (Table 14, CCRF-CEM/VM-1, read-out: Cytotoxic Concentration IC50) worked out at 4050 nM; in data set [3] (Homo sapiens, SK-BR-3, Table 2, SK-Br-3 (Breast), read-out: concentration required to inhibit cell growth by 50% (IC50)), 551 nM; in data set [3] (Homo sapiens, SK-BR-3, Table 4, SK-Br-3, read-out: Cytotoxic Concentration IC50), 551 nM; in data set [4] (Homo sapiens, 833K, Table 2, 833K (Testicular), read-out: concentration required to inhibit cell growth by 50% (IC50)), 43 nM; in data set [4] (Homo sapiens, 833K, Table 4, 833k, read-out: Cytotoxic Concentration IC50), 43 nM; in data set [5] (Table 2, DC-3F, read-out: concentration required to inhibit cell growth by 50% (IC50)), 8.8 nM. The IC50 in data set [5] (Table 4, DC-3F, read-out: Cytotoxic Concentration IC50) was found to be 8.8 nM; in data set [5] (Table 13, DC-3F, read-out: Cytotoxic Concentration IC50), 4 nM; in data set [6] (Table 2, DC-3F/ADII (MDR/Actinomycin D), read-out: concentration required to inhibit cell growth by 50% (IC50)) it was 71 nM; in data set [6] (Table 4, DC-3F/ADII, read-out: Cytotoxic Concentration IC50) it was 70.7 nM; in data set [6] (Table 13, DC-3F/ADII, read-out: Cytotoxic Concentration IC50), 33 nM; with MT2 cells (Homo sapiens, read-out: Cytotoxic Concentration IC50), 19 nM. Moreover, the IC90 was 176 nM in data set [1] (Homo sapiens, HL-60, Table 3, HL-60, read-out: Cytotoxic Concentration IC90); 1540 nM in data set [2] (Table 3, CCRF-CEM); 755 nM in data set [2] (Table 14, CCRF-CEM); 2460 nM in the data set with CCRF-CEM/VBL cells (Table 3, CCRF-CEM/VBL); 7230 nM with CCRF-CEM/VBL cells (setting [7]); 3570 nM with CCRF-CEM/VM-1 cells (Table 3, CCRF-CEM/VM-1). Further, the IC90 in the data set with CCRF-CEM/VM-1 cells (Table 14, CCRF-CEM/VM-1) was 11000 nM; in data set [3] (Homo sapiens, SK-BR-3, Table 4, SK-Br-3, read-out: Cytotoxic Concentration IC90), 84100 nM; in [4] (Homo sapiens, 833K, Table 4, 833k, read-out: Cytotoxic Concentration IC90), 189 nM; in data set [5] (Table 4, DC-3F) it was 53 nM; in data set [5] (Table 13, DC-3F) it was 17 nM; in data set [6] (Table 4, DC-3F/ADII), 825 nM. Further, the IC90 came out at 180 nM in data set [6] (Table 13, DC-3F/ADII) and 38 nM in the data set with MT2 cells (Homo sapiens, read-out: Cytotoxic Concentration IC90). The “Cytotoxic Concentration IC95” value in data set [1] (Table 3, HL-60) is 294 nM; in [2] (Table 3, CCRF-CEM) it was 3101 nM; in data set [2] (Table 14, CCRF-CEM), 1378 nM; in the data set with CCRF-CEM/VBL cells (Table 3, CCRF-CEM/VBL), 4045 nM; with CCRF-CEM/VBL cells (setting [7]), 14353 nM; in the data set with CCRF-CEM/VM-1 cells (Table 3, CCRF-CEM/VM-1) it was 4586 nM. For the same molecule, the “Cytotoxic Concentration IC95” value in the data set with CCRF-CEM/VM-1 cells (Table 14, CCRF-CEM/VM-1) came to 15391 nM; in data set [3] (Table 4, SK-Br-3), 464700 nM; in [4] (Table 4, 833k), 311 nM; in [5] (Table 4, DC-3F) it was 97.5 nM; in data set [5] (Table 13, DC-3F), 28 nM; in data set [6] (Table 4, DC-3F/ADII), 1902 nM. Further, the “Cytotoxic Concentration IC95” value in [6] (Table 13, DC-3F/ADII) stood at 321 nM; in the data set on MT2 cells, 48 nM. For the same molecule, the “ratio of IC50 to EQI-6 (in parentheses)” value is on record as 66.9 × in [1] (Table 3, HL-60, EQI-6 = (1)); 398 × in data set [2] (Table 3, CCRF-CEM, EQI-6 = (1)); 298.9 × in the data set on CCRF-CEM/VBL cells (setting [8]); 902.1 × in the data set with CCRF-CEM/VM-1 cells (setting [9]); 16.2 × in data set [3] (Table 4, SK-Br-3, EQI-6 = (1)); 6.14 × in [4] (Table 4, 833k, EQI-6 = (1)). The “ratio of IC50 to EQI-6 (in parentheses)” value amounted to 4.9 × in data set [5] (Table 4, DC-3F, EQI-6 = (1)) and 12 × in data set [6] (setting [10]). Moreover, the “ratio of IC90 to EQI-6 (in parentheses)” value in data set [1] (Table 3, HL-60, EQI-6 = (1)) is on record as 67.7 ×; in [2] (Table 3, CCRF-CEM, EQI-6 = (1)), 702 ×; with CCRF-CEM/VBL cells (setting [8]), 396 ×; in the data set with CCRF-CEM/VM-1 cells (setting [9]), 401.3 ×; in [3] (Table 4, SK-Br-3, EQI-6 = (1)), 449.7 ×; in [4] (Table 4, 833k, EQI-6 = (1)), 7.56 ×. In addition, the “ratio of IC90 to EQI-6 (in parentheses)” value in [5] (Table 4, DC-3F, EQI-6 = (1)) is listed as 4.8 ×; in data set [6] (setting [10]), 53.6 ×. Moreover, the “ratio of IC95 to EQI-6 (in parentheses)” value in [1] (Table 3, HL-60, EQI-6 = (1)) stood at 66.8 ×; in data set [2] (Table 3, CCRF-CEM, EQI-6 = (1)), 838 ×; with CCRF-CEM/VBL cells (setting [8]), 434.9 ×; in the data set on CCRF-CEM/VM-1 cells (setting [9]), 303 ×; in [3] (Table 4, SK-Br-3, EQI-6 = (1)), 139.7 ×; in [4] (Table 4, 833k, EQI-6 = (1)) it was 7.97 ×. The “ratio of IC95 to EQI-6 (in parentheses)” value in data set [5] (Table 4, DC-3F, EQI-6 = (1)) worked out at 4.9 ×; in data set [6] (setting [10]) it was 88.9 ×.

`CC[C@]1(O)C[C@@H]2CN(CCc3c([nH]c4ccccc34)[C@@](C(=O)OC)(c3cc4c(cc3OC)N(C)[C@H]3[C@@](O)(C(=O)OC)[C@H](OC(C)=O)[C@]5(CC)C=CCN6CC[C@]43[C@@H]65)C2)C1` [vinblastin]: the “resistance of cell line to vinblastin” value in the data set with CCRF-CEM/VBL cells (CCRF/VBL100 versus CCRF/CEM) is 59 fold.

As to actinomycin D, the “resistance of cell line to actinomycin D” value in data set [6] (DC3F/ADII versus DC3F) is reported as 32 fold.

(Values after US6020341A, “Enediyne quinone imines and methods of preparation and use thereof” (priority 1997, dated 2000).)
